The text below walks through data of PMC11299021, “Machine learning-assisted substrate binding pocket engineering based on structural information” (Briefings in Bioinformatics, 2024).

This experiment addresses T1, KvAP (Klebsiella variicola acid phosphatase) (Klebsiella variicola, UniProt B5XS64).
T1 construct: gene KPK_3238; synthetic gene in pET-22b (NdeI/BlpI), E. coli BL21(DE3); His-Trap and Superdex 75 purified
T1 sequence (B5XS64 20-248): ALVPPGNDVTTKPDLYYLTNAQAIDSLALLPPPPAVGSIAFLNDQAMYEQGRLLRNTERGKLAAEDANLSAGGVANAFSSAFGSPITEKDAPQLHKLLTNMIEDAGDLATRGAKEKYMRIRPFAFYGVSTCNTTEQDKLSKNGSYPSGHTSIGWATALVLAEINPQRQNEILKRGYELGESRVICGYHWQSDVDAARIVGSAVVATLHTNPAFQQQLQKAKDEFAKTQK
Description: p-nitrophenol release at […] nm (specific activity). The settings on record: 200 mM p-NPP disodium salt, 50 mM acetate pH 5.0, 37 °C, 20 min. Type of experiment: biochemical.

For `O=[N+]([O-])c1ccc(OP(=O)(O)O)cc1` [p-NPP], the “p-nitrophenol release at 405 nm (specific activity)” value was “The purified enzyme was used for measuring its activity against nitrophenyl phosphate (p-NPP)”.
